The supplement of paper PMC11451515

Tests used:
Conditions in all cases: 48 h
SEM cells [1] = test: AUC of viability dose-response curve (% viability x log10 dose units); higher = less sensitive
Method in brief: (§1)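 Medium-adapted leukemia cells in 1536-well plates, at 500 or 1000 cells/well, were incubated for 48 h at 37°C with library compounds in DMSO at 11 threefold doses from 47 μM to 0.79 nM. CellTiter-Glo One luminescence normalised per plate to DMSO and cell-free wells was fitted with a four-parameter log-logistic model over log10 doses. Area under the curve was integrated from this fit by trapezoidal rule, with curves beyond full viability scaled and failed quality-control curves removed.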

P12-Ichikawa [2] = test: as above
Method in brief: as §1

NOMO1 [3] = test: as above
Method in brief: as §1

SEM cells [4] = test: cell viability relative to DMSO control; higher = less cytotoxic
Method in brief: (§2)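 Cells were incubated for 48 h at 37°C before CellTiter-Glo One luminescence was read. The cells were NOMO1 or SEM (500 cells/well) or P12-Ichikawa (1000 cells/well) leukemia cells, adapted for at least four passages in each medium and seeded in 1536-well plates (5 μl). Dosing used library compounds in DMSO applied by pin over 11 threefold points, 47 μM to 0.79 nM. Viability is the per-plate percentage of DMSO wells, with cell-free wells as background.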

P12-Ichikawa [5] = test: as above
Method in brief: as §2

NOMO1 [6] = test: as above
Method in brief: as §2

Nc1ncnc2nc(-c3ccc(N4CCOCC4)nc3)cc(-c3cccc(Br)c3)c12
AUC of viability dose-response curve
Conditions	NOMO1 [3]	P12-Ichikawa [2]	SEM cells [1]
HPLM + 10% dialyzed FBS	463	460	470
RPMI 5 mM glucose + 10% FBS	475	439	471
RPMI 5 mM glucose + 10% dialyzed FBS	460	467	470

cell viability [%]
Conditions	NOMO1 [6]	P12-Ichikawa [5]	SEM cells [4]
HPLM + 10% dialyzed FBS, 0.000781 µM	–	116	109
HPLM + 10% dialyzed FBS, 0.00234 µM	–	128	107
HPLM + 10% dialyzed FBS, 0.00702 µM	–	117	115
HPLM + 10% dialyzed FBS, 0.0211 µM	–	122	118
HPLM + 10% dialyzed FBS, 0.0632 µM	–	117	114
HPLM + 10% dialyzed FBS, 0.19 µM	–	117	122
HPLM + 10% dialyzed FBS, 0.569 µM	–	115	117
HPLM + 10% dialyzed FBS, 1.71 µM	–	119	115
HPLM + 10% dialyzed FBS, 5.12 µM	–	111	109
HPLM + 10% dialyzed FBS, 15.4 µM	–	108	110
HPLM + 10% dialyzed FBS, 46.1 µM	–	113	96.5
RPMI 5 mM glucose + 10% FBS, 0.000781 µM	108	–	93.2
RPMI 5 mM glucose + 10% FBS, 0.00234 µM	107	–	124
RPMI 5 mM glucose + 10% FBS, 0.00702 µM	116	–	77.9
RPMI 5 mM glucose + 10% FBS, 0.0211 µM	121	–	111
RPMI 5 mM glucose + 10% FBS, 0.0632 µM	111	–	114
RPMI 5 mM glucose + 10% FBS, 0.19 µM	118	–	110
RPMI 5 mM glucose + 10% FBS, 0.569 µM	122	–	104
RPMI 5 mM glucose + 10% FBS, 1.71 µM	115	–	105
RPMI 5 mM glucose + 10% FBS, 5.12 µM	114	–	114
RPMI 5 mM glucose + 10% FBS, 15.4 µM	106	–	106
RPMI 5 mM glucose + 10% FBS, 46.1 µM	107	–	83
RPMI 5 mM glucose + 10% dialyzed FBS, 0.000781 µM	108	114	125
RPMI 5 mM glucose + 10% dialyzed FBS, 0.00234 µM	127	121	124
RPMI 5 mM glucose + 10% dialyzed FBS, 0.00702 µM	121	112	102
RPMI 5 mM glucose + 10% dialyzed FBS, 0.0211 µM	111	121	133
RPMI 5 mM glucose + 10% dialyzed FBS, 0.0632 µM	106	118	125
RPMI 5 mM glucose + 10% dialyzed FBS, 0.19 µM	120	121	127
RPMI 5 mM glucose + 10% dialyzed FBS, 0.569 µM	110	129	132
RPMI 5 mM glucose + 10% dialyzed FBS, 1.71 µM	117	115	126
RPMI 5 mM glucose + 10% dialyzed FBS, 5.12 µM	116	115	133
RPMI 5 mM glucose + 10% dialyzed FBS, 15.4 µM	106	108	123
RPMI 5 mM glucose + 10% dialyzed FBS, 46.1 µM	120	112	93

CN(C)c1ccc(-c2nc3c(N4CCN(CC(=O)Nc5nccs5)CC4)c(Cl)cnc3[nH]2)cc1
AUC of viability dose-response curve
Conditions	NOMO1 [3]	P12-Ichikawa [2]	SEM cells [1]
HPLM + 10% dialyzed FBS	431	468	429
RPMI 5 mM glucose + 10% FBS	466	466	420
RPMI 5 mM glucose + 10% dialyzed FBS	460	428	421

cell viability [%]
Conditions	NOMO1 [6]	P12-Ichikawa [5]	SEM cells [4]
HPLM + 10% dialyzed FBS, 0.000781 µM	117	109	129
HPLM + 10% dialyzed FBS, 0.00234 µM	130	107	102
HPLM + 10% dialyzed FBS, 0.00702 µM	121	118	115
HPLM + 10% dialyzed FBS, 0.0211 µM	124	110	112
HPLM + 10% dialyzed FBS, 0.0632 µM	113	113	115
HPLM + 10% dialyzed FBS, 0.19 µM	127	117	112
HPLM + 10% dialyzed FBS, 0.569 µM	112	115	109
HPLM + 10% dialyzed FBS, 1.71 µM	102	109	86.9
HPLM + 10% dialyzed FBS, 5.12 µM	101	108	105
HPLM + 10% dialyzed FBS, 15.4 µM	89.9	102	80
HPLM + 10% dialyzed FBS, 46.1 µM	69.2	103	58.8
RPMI 5 mM glucose + 10% FBS, 0.000781 µM	102	113	103
RPMI 5 mM glucose + 10% FBS, 0.00234 µM	99.3	114	118
RPMI 5 mM glucose + 10% FBS, 0.00702 µM	98.6	116	130
RPMI 5 mM glucose + 10% FBS, 0.0211 µM	94.6	131	107
RPMI 5 mM glucose + 10% FBS, 0.0632 µM	101	109	106
RPMI 5 mM glucose + 10% FBS, 0.19 µM	108	125	124
RPMI 5 mM glucose + 10% FBS, 0.569 µM	93.6	111	107
RPMI 5 mM glucose + 10% FBS, 1.71 µM	109	115	87.7
RPMI 5 mM glucose + 10% FBS, 5.12 µM	103	118	92.5
RPMI 5 mM glucose + 10% FBS, 15.4 µM	89.9	95.9	70.3
RPMI 5 mM glucose + 10% FBS, 46.1 µM	77.7	103	51.2
RPMI 5 mM glucose + 10% dialyzed FBS, 0.000781 µM	108	–	105
RPMI 5 mM glucose + 10% dialyzed FBS, 0.00234 µM	107	–	121
RPMI 5 mM glucose + 10% dialyzed FBS, 0.00702 µM	103	–	120
RPMI 5 mM glucose + 10% dialyzed FBS, 0.0211 µM	108	–	116
RPMI 5 mM glucose + 10% dialyzed FBS, 0.0632 µM	113	–	107
RPMI 5 mM glucose + 10% dialyzed FBS, 0.19 µM	106	–	111
RPMI 5 mM glucose + 10% dialyzed FBS, 0.569 µM	101	–	102
RPMI 5 mM glucose + 10% dialyzed FBS, 1.71 µM	107	–	89.7
RPMI 5 mM glucose + 10% dialyzed FBS, 5.12 µM	98.3	–	97.9
RPMI 5 mM glucose + 10% dialyzed FBS, 15.4 µM	94.8	–	71.1
RPMI 5 mM glucose + 10% dialyzed FBS, 46.1 µM	70.3	–	49.6

C[C@H](NC(=O)[C@@H](O)c1cc(F)cc(F)c1)C(=O)N[C@@H]1C(=O)N(C)c2ccccc2-c2ccccc21
AUC of viability dose-response curve
Conditions	NOMO1 [3]	P12-Ichikawa [2]	SEM cells [1]
HPLM + 10% dialyzed FBS	402	432	440
RPMI 5 mM glucose + 10% FBS	450	441	453
RPMI 5 mM glucose + 10% dialyzed FBS	432	437	417

cell viability [%]
Conditions	NOMO1 [6]	P12-Ichikawa [5]	SEM cells [4]
HPLM + 10% dialyzed FBS, 0.000781 µM	–	118	–
HPLM + 10% dialyzed FBS, 0.00234 µM	–	116	–
HPLM + 10% dialyzed FBS, 0.00702 µM	–	111	–
HPLM + 10% dialyzed FBS, 0.0211 µM	–	119	–
HPLM + 10% dialyzed FBS, 0.0632 µM	–	106	–
HPLM + 10% dialyzed FBS, 0.19 µM	–	108	–
HPLM + 10% dialyzed FBS, 0.569 µM	–	105	–
HPLM + 10% dialyzed FBS, 1.71 µM	–	101	–
HPLM + 10% dialyzed FBS, 5.12 µM	–	96.8	–
HPLM + 10% dialyzed FBS, 15.4 µM	–	102	–
HPLM + 10% dialyzed FBS, 46.1 µM	–	90.1	–
RPMI 5 mM glucose + 10% FBS, 0.000781 µM	103	114	120
RPMI 5 mM glucose + 10% FBS, 0.00234 µM	115	116	121
RPMI 5 mM glucose + 10% FBS, 0.00702 µM	106	119	120
RPMI 5 mM glucose + 10% FBS, 0.0211 µM	122	115	135
RPMI 5 mM glucose + 10% FBS, 0.0632 µM	109	114	122
RPMI 5 mM glucose + 10% FBS, 0.19 µM	114	111	128
RPMI 5 mM glucose + 10% FBS, 0.569 µM	104	102	107
RPMI 5 mM glucose + 10% FBS, 1.71 µM	86.6	90.5	115
RPMI 5 mM glucose + 10% FBS, 5.12 µM	97.7	99.8	111
RPMI 5 mM glucose + 10% FBS, 15.4 µM	101	101	121
RPMI 5 mM glucose + 10% FBS, 46.1 µM	97.3	94.3	85.9
RPMI 5 mM glucose + 10% dialyzed FBS, 0.000781 µM	119	114	–
RPMI 5 mM glucose + 10% dialyzed FBS, 0.00234 µM	116	110	–
RPMI 5 mM glucose + 10% dialyzed FBS, 0.00702 µM	119	109	–
RPMI 5 mM glucose + 10% dialyzed FBS, 0.0211 µM	113	109	–
RPMI 5 mM glucose + 10% dialyzed FBS, 0.0632 µM	113	106	–
RPMI 5 mM glucose + 10% dialyzed FBS, 0.19 µM	105	101	–
RPMI 5 mM glucose + 10% dialyzed FBS, 0.569 µM	101	99.6	–
RPMI 5 mM glucose + 10% dialyzed FBS, 1.71 µM	113	106	–
RPMI 5 mM glucose + 10% dialyzed FBS, 5.12 µM	102	95.8	–
RPMI 5 mM glucose + 10% dialyzed FBS, 15.4 µM	97.3	94.3	–
RPMI 5 mM glucose + 10% dialyzed FBS, 46.1 µM	84.5	78.5	–
